Experimental data published in ChEMBL document CHEMBL1139156, “Novel naphthyridines are histamine H3 antagonists and serotonin reuptake transporter inhibitors” (Bioorg Med Chem Lett, 2007).

Legend:
Histamine H3 receptor [1] = target: T1, Histamine H3 receptor (Homo sapiens, UniProt Q9Y5N1); assay: Antagonist activity at human histamine H3 receptor expressed in SK-N-MC cells assessed as effect on cAMP accumulation; format: functional, cell-based; details: read-out: pA2 (converted)
[2] = target: Sodium-dependent serotonin transporter (Rattus norvegicus, UniProt P31652); assay: Binding affinity to rat SERT
Histamine H3 receptor [3] = target: T1, Histamine H3 receptor; assay: Displacement of N-[3H]alpha-methylhistamine from human histamine H3 receptor expressed in SK-N-MC cells; format: cell-based
[4] = target: Sodium-dependent serotonin transporter (Homo sapiens, UniProt P31645); assay: Binding affinity to human SERT
[5] = Cmax in rat brain at 10 mg/kg, po after 6 hrs; format: ADME, organism-based; design: dose 10 mg/kg, route oral
[6] = Cmax in rat plasma at 10 mg/kg, po after 1 hr; format: ADME, organism-based; design: dose 10 mg/kg, route oral
[7] = Drug level in rat brain at 10 mg/kg, po after 24 hrs; format: ADME, organism-based; design: dose 10 mg/kg, route oral; details: read-out: Drug uptake

Sodium-dependent serotonin transporter (Rattus norvegicus, UniProt P31652), sequence (P31652 whole entry): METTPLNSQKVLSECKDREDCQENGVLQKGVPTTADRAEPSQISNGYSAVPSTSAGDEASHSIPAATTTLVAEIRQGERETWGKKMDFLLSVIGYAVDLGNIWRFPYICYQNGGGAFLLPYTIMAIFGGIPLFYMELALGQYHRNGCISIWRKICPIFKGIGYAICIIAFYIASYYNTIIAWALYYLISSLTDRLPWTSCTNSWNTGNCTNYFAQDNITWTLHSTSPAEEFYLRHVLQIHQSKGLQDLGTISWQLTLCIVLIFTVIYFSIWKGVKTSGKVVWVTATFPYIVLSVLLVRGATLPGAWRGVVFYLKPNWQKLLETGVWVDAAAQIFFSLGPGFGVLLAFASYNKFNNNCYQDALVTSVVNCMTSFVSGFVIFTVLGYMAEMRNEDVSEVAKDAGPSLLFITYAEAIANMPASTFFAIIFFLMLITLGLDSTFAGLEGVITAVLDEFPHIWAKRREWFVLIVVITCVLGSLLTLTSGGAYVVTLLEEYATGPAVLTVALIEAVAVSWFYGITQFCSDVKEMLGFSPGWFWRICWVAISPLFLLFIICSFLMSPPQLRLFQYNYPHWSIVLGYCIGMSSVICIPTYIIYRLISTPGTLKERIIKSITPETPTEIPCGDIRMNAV
Sodium-dependent serotonin transporter (Homo sapiens, UniProt P31645), sequence (P31645 whole entry): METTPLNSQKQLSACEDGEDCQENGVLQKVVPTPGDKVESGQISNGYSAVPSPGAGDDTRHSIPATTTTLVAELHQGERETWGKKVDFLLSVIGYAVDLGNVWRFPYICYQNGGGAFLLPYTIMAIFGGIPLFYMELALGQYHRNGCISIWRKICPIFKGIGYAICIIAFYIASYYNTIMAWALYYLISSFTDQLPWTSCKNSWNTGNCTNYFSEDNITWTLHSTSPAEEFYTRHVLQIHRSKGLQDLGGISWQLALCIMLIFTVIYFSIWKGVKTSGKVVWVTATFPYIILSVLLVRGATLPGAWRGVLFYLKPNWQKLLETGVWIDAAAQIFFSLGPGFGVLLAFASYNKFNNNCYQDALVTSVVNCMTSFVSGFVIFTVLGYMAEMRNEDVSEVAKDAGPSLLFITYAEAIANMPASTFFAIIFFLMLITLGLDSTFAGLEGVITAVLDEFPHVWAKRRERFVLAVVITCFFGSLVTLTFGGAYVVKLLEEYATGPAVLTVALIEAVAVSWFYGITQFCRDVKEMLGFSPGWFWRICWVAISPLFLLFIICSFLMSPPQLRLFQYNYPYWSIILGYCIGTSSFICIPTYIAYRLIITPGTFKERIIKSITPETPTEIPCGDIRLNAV
T1 sequence (Q9Y5N1 whole entry): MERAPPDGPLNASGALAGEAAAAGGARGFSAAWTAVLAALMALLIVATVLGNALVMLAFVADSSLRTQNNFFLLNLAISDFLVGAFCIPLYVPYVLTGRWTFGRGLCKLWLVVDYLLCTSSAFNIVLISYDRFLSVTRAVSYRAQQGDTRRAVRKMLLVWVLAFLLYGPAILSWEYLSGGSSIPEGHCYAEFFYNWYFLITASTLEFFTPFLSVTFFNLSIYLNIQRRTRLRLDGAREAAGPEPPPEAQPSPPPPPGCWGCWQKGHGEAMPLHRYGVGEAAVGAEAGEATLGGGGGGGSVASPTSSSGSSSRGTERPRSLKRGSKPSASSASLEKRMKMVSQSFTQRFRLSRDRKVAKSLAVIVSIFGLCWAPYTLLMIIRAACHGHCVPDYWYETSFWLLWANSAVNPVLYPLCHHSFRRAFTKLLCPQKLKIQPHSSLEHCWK

Structure (SMILES) | Kb (Histamine H3 receptor [1]) [nM] | further results
COc1cccc(C2CN(C)Cc3cc(OCCCN4CCCCC4)ncc32)c1 (centres undefined) | 25.7 | 
COc1ccc(C2CNCc3cc(OCCCN4CCCCC4)ncc32)cc1 (centres undefined) | 5.89 | Ki [2]: 46 nM
CN1Cc2cc(OCCCN3CCCCC3)ncc2C(c2ccc(F)cc2)C1 (centres undefined) | 3.55 | 
Clc1ccc(C2CNCc3cc(OCCCN4CCCCC4)ncc32)cc1 (centres undefined) | 3.89 | 
CN1Cc2cc(OCCCN3CCCCC3)ncc2C(c2ccccc2)C1 (centres undefined) | 21.4 | 
c1ccc(C2CNCc3cc(OCCCN4CCCCC4)ncc32)cc1 (centres undefined) | 0.724 | 
CN1Cc2cc(OCCCN3CCCCC3)ncc2C(c2ccccc2F)C1 (centres undefined) | 1.05 | 
Clc1ccccc1C1CNCc2cc(OCCCN3CCCCC3)ncc21 (centres undefined) | 1.05 | 
CN1Cc2cc(OCCCN3CCCCC3)ncc2C(c2ccc(Cl)c(F)c2)C1 (centres undefined) | 16.6 | Ki [2]: 26 nM; Ki (Histamine H3 receptor [3]): 7 nM; Ki [4]: 147 nM
CCN(CC)CCCOc1cc2c(cn1)C(c1ccc(Cl)c(Cl)c1)CNC2 (centres undefined) | 14.1 | 
CCN(CC)CCCOc1cc2c(cn1)C(c1ccccc1)CN(C)C2 (centres undefined) | 0.661 | 
COc1ccc(C2CN(C)Cc3cc(OCCCN4CCOCC4)ncc32)cc1 (centres undefined) | 11.7 | 
CC(C)N1CCC(COc2cc3c(cn2)C(c2ccc(Cl)c(Cl)c2)CNC3)CC1 (centres undefined) |  | Ki [2]: 18 nM; Ki (Histamine H3 receptor [3]): 13 nM; Ki [4]: 37 nM
COc1ccc(C2CNCc3cc(OCC4CCN(C(C)C)CC4)ncc32)cc1 (centres undefined) | 3.55 | 
CN1Cc2cc(OCCCN3CCCCC3)ncc2C(c2ccc(Cl)c(Cl)c2)C1 (centres undefined) | 18.2 | 
c1ccc(C2CNCc3cc(OCCCN4CCOCC4)ncc32)cc1 (centres undefined) |  | Cmax [5]: 5560 nM; Cmax [6]: 220 nM; Ki (Histamine H3 receptor [3]): 13 nM; Ki [4]: 4770 nM; concentration at 24 h [7]: > 600 nM
CN1Cc2cc(OCCCN3CCCCC3)ncc2C(c2cccc(Cl)c2)C1 (centres undefined) | 9.77 | 
Clc1ccc(C2CNCc3cc(OCCCN4CCCCC4)ncc32)cc1Cl (centres undefined) | 11.2 | Ki [4]: 32 nM
